For this experiment, the target named is canine TRPM8 (Canis lupus familiaris, UniProt Q1A7N1). Kind of experiment: In vitro canine TRPM8 functional assay (Ca2+-sensitive fluorescent dye, icilin activation). It is filed as cell-based. The procedure:
The functional activity of representative compounds of the formula (I) of the present invention was quantified by measuring changes in intracellular calcium concentration using a Ca^2+-sensitive fluorescent dye. The changes in fluorescent signal were monitored by a fluorescence plate reader, either a FLIPR™ (Molecular Devices) or FDSS (Hamamatsu).
HEK293 cells stably expressing canine TRPM8 were routinely grown as monolayers in Dulbecco's minimum essential medium supplemented with 10% FBS, 2 mM L-glutamine, 100 units/mL penicillin, 100 ug/mL streptomycin and 400 μg/mL G418. Cells were maintained in 5% CO2 at 37° C. At 24 hr prior to assay, cells were seeded in black wall, clear-base poly-D-lysine coated 384-well plates (BD Biosciences, NJ, USA) at a density of 5,000 cells per well in culture medium and grown overnight in 5% CO2 at 37° C. On assay day, growth media was removed, and cells were loaded with Calcium 3 Dye (Molecular Devices) for 35 min at 37° C., under 5% CO2 and then incubated for 25 min at room temperature and atmosphere. Subsequently, cells were tested for agonist-induced increases in intracellular Ca^2+ levels using FLIPR™ or FDSS. Cells were treated with compounds of the formula (I) at varying concentrations and intracellular Ca^2+ was measured for 5 min prior to the addition of icilin to each well to achieve a final concentration that produces an approximately 80% maximal response.
Maximal fluorescence intensity (FI) achieved upon addition of icilin was exported from the FLIPR™ or FDSS software and further analyzed using GraphPad Prism 3.02 (Graph Pad Software Inc., CA, U.S.A.). Basal FI was subtracted prior to normalizing data to percent of maximal response. Curves were generated using the average of quadruplicate wells for each data point using nonlinear regression of either sigmoidal dose response or sigmoidal dose response (variable slope). Finally, the EC50 and IC50 values were calculated with the best-fit curve determined by GraphPad Prism

Where [1] appears, read: 0.2 μM compound, HEK293 cells stably expressing canine TRPM8, icilin-induced Ca2+ response.
The mark [2] stands for this setting: HEK293 cells stably expressing canine TRPM8, icilin-induced Ca2+ response, eight-point concentration-response.
Where [3] appears, read: HEK293, 0.2 μM compound, HEK293 cells stably expressing canine TRPM8, icilin-induced Ca2+ response.
[4] abbreviates: 0.2 μM compound, HEK293 cells stably expressing canine TRPM8, icilin-induced Ca2+ response, hydrochloride.

Consider 25 compounds from patent US9409915B2, “Substituted aza-bicyclic imidazole derivatives useful as TRPM8 receptor modulators” (Janssen Pharmaceutica NV, priority 2010, dated 2016).

For orientation: inhibition means the percentage by which the read-out fell short of the control. The low end stands for a response near the control, the high end for a response far below the control. As usually defined, the IC50 is the concentration at which inhibition is half-maximal.

Counter-ions that a name gives are not always drawn. Like-named read-outs stand apart in the source and are kept apart here.

Sequence of canine TRPM8 (Q1A7N1 1-1104): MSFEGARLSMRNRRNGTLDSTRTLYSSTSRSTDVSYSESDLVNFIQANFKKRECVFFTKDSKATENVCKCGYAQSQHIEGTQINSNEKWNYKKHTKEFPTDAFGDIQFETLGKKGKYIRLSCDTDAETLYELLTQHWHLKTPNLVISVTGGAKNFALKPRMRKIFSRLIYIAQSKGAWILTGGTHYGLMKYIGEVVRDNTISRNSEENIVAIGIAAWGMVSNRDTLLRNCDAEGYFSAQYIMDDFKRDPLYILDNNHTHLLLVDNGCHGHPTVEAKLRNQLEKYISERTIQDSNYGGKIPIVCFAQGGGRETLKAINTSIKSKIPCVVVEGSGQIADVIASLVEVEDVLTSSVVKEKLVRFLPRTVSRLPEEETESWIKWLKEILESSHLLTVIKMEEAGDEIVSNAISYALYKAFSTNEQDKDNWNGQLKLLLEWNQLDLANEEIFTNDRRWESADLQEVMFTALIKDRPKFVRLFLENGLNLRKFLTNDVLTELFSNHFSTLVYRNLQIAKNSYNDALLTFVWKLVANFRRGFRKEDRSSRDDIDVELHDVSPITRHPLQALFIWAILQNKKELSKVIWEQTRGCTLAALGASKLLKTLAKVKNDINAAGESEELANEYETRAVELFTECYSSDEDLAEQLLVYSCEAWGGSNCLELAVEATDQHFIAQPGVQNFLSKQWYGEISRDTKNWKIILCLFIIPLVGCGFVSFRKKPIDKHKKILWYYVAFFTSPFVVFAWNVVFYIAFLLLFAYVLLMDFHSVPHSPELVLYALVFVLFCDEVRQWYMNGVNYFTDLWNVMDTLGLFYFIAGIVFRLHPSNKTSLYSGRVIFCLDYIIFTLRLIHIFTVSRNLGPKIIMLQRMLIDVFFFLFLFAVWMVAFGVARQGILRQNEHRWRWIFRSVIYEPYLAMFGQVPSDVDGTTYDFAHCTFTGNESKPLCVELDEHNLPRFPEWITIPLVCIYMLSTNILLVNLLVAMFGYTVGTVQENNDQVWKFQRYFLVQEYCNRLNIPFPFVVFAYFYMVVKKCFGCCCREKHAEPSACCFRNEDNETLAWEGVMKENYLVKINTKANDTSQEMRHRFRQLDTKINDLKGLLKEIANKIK

Take `CC(C)(C)c1cc(-c2nc3nc(-c4ccccc4Cl)ccc3[nH]2)on1` [Compound 26, 2-(3-tert-Butyl-isoxazol-5-yl)-5-(2-chloro-phenyl)-1H-imidazo[4,5-b]pyridine]: under setting [1], at 0.2 µM the inhibition was 100%. The half-inhibitory concentration (IC50) under setting [2] was 35 nM.
For the compound `Cn1nc(C(C)(C)C)cc1-c1nc2nc(-c3ccccc3Cl)ccc2[nH]1` [Compound 27, 2-(5-tert-Butyl-2-methyl-2H-pyrazol-3-yl)-5-(2-chloro-phenyl)-1H-imidazo[4,5-b]pyridine], the inhibition at 0.2 µM under setting [1] was 73%. The IC50 under setting [2] stood at 124 nM.
Regarding `CN1CCN(c2nc(-c3ccccc3C(F)(F)F)cc3nc(-c4c(Cl)c(C(C)(C)C)nn4C)[nH]c23)CC1` [Compound 28, 2-(5-tert-Butyl-4-chloro-2-methyl-2H-pyrazol-3-yl)-4-(4-methyl-piperazin-1-yl)-6-(2-trifluoromethyl-phenyl)-3H-imidazo[4,5-c]pyridine methanesulfonic acid salt], the inhibition at 0.2 µM under setting [3] came to 99%. This compound registered an IC50 under setting [2] of 11 nM.
For `CC(C)(C)c1cc(-c2nc3nc(-c4ccccc4OC(F)(F)F)ccc3[nH]2)on1` [Compound 29, 2-(3-tert-Butyl-isoxazole-5-yl)-5-(2-trifluoromethoxy-phenyl)-1H-imidazo[4,5-b]pyridine], testing at 0.2 µM under setting [1] gave an inhibition of 99%. The compound also gave an IC50 under setting [2] of 33 nM.
In the same order, the values of `CC(C)(C)c1cc(-c2nc3nc(-c4ccccc4F)ccc3[nH]2)on1` [Compound 30, 2-(3-tert-Butyl-isoxazol-5-yl)-5-(2-fluoro-phenyl)-1H-imidazo[4,5-b]pyridine] are 87% and 87 nM.
Consider `CC(C)(C)c1cc(-c2nc3nc(-c4ccccc4C(F)(F)F)ccc3[nH]2)on1` [Compound 31, 2-(3-tert-Butyl-isoxazol-5-yl)-5-(2-trifluoromethyl-phenyl)-1H-imidazo[4,5-b]pyridine], for which, under setting [1], the inhibition at 0.2 µM stood at 100%. For the same compound, the IC50 under setting [2] was 18 nM.
In the same order, the values of `Cn1nc(C(C)(C)C)c(Cl)c1-c1nc2nc(-c3ccccc3C(F)(F)F)ccc2[nH]1` [Compound 32, 2-(5-tert-Butyl-4-chloro-2-methyl-2H-pyrazol-3-yl)-5-(2-trifluoromethyl-phenyl)-1H-imidazo[4,5-b]pyridine hydrochloride] are 100% and 7.6 nM.
`Cn1nc(C(C)(C)C)c(Cl)c1-c1nc2nc(-c3ccccc3F)ccc2[nH]1` [Compound 33, 2-(5-tert-Butyl-4-chloro-2-methyl-2H-pyrazol-3-yl)-5-(2-fluoro-phenyl)-1H-imidazo[4,5-b]pyridine hydrochloride]: the inhibition at 0.2 µM under setting [1] amounted to 98%. This compound gave an IC50 under setting [2] of 40 nM.
As for `Cn1nc(C(C)(C)C)cc1-c1nc2nc(-c3ccccc3C(F)(F)F)ccc2[nH]1` [Compound 34, 2-(5-tert-Butyl-2-methyl-2H-pyrazol-3-yl)-5-(2-trifluoromethyl-phenyl)-1H-imidazo[4,5-b]pyridine], the inhibition at 0.2 µM under setting [1] was 89%. Besides, under setting [2], half-maximal inhibition (IC50) required 77 nM.
In the case of `Cc1nc(-c2ccccc2C(F)(F)F)nc2nc(-c3cc(C(C)(C)C)nn3C)[nH]c12` [Compound 35, 8-(5-tert-Butyl-2-methyl-2H-pyrazol-3-yl)-6-methyl-2-(2-trifluoromethyl-phenyl)-7H-purine trifluoroacetic acid salt], the inhibition at 0.2 µM under setting [1] turned out to be 67%.
Take `Cn1nc(C(C)(C)C)cc1-c1nc2nc(-c3ccccc3F)ccc2[nH]1` [Compound 36, 2-(5-tert-Butyl-2-methyl-2H-pyrazol-3-yl)-5-(2-fluoro-phenyl)-1H-imidazo[4,5-b]pyridine]: the inhibition at 0.2 µM under setting [1] was 26%.
In the case of `Cn1nc(C(C)(C)C)cc1-c1nc2cc(-c3ccccc3OC(F)(F)F)ncc2[nH]1` [Compound 39, 2-(5-tert-Butyl-2-methyl-2H-pyrazol-3-yl)-6-(2-trifluoromethoxy-phenyl)-3H-imidazo[4,5-c]pyridine hydrochloride], the inhibition at 0.2 µM under setting [3] came to 69%. In addition, under setting [2], the IC50 stood at 75 nM.
Take `Cl.Cn1nc(C(C)(C)C)cc1-c1nc2cc(-c3ccccc3C(F)(F)F)ncc2[nH]1` [Compound 40, 2-(5-tert-Butyl-2-methyl-2H-pyrazol-3-yl)-6-(2-trifluoromethyl-phenyl)-3H-imidazo[4,5c]pyridine hydrochloride]: the “% Inh @ 0.2 μM” value stood at 86% and the IC50 was found to be 59 nM.
As to `Cn1nc(C(C)(C)C)cc1-c1nc2cc(-c3ccccc3Cl)ncc2[nH]1` [Compound 41, 2-(5-tert-Butyl-2-methyl-2H-pyrazol-3-yl)-6-(2-chloro-phenyl)-3H-imidazo[4,5-c]pyridine hydrochloride], the inhibition at 0.2 µM under setting [1] came out at 94%. Under setting [2], this compound had an IC50 of 51 nM.
Under setting [1], `Cn1nc(C(C)(C)C)cc1-c1nc2cc(-c3ccccc3F)ncc2[nH]1` [Compound 42, 2-(5-tert-Butyl-2-methyl-2H-pyrazol-3-yl)-6-(2-fluoro-phenyl)-3H-imidazo[4,5-c]pyridine hydrochloride] gave an inhibition at 0.2 µM of 75%. Besides, under setting [2], the IC50 was found to be 59 nM.
With `Cl.Cn1nc(C(C)(C)C)c(Cl)c1-c1nc2cc(-c3ccccc3F)ncc2[nH]1` [Compound 43, 2-(5-tert-Butyl-4-chloro-2-methyl-2H-pyrazol-3-yl)-6-(2-fluoro-phenyl)-3H-imidazo[4,5-c]pyridine hydrochloride], the “% Inh @ 0.2 μM” value under setting [4] stood at 100%. For the same compound, half-maximal inhibition under setting [2] (IC50) required 22 nM.
`Cn1nc(C(C)(C)C)c(C#N)c1-c1nc2cc(-c3ccccc3F)ncc2[nH]1` [Compound 44, 3-tert-Butyl-5-[6-(2-fluoro-phenyl)-3H-imidazo[4,5-c]pyridin-2-yl]-1-methyl-1H-pyrazole-4-carbonitrile hydrochloride] gave an inhibition at 0.2 µM under setting [1] of 98%. Under setting [2], the midpoint of inhibition, the IC50, lay at 37 nM.
`Cn1nc(C(C)(C)C)c(C#N)c1-c1nc2cc(-c3ccccc3C(F)(F)F)ncc2[nH]1` [Compound 45, 3-tert-Butyl-1-methyl-5-[6-(2-trifluoromethyl-phenyl)-3H-imidazo[4,5-c]pyridin-2-yl]1H-pyrazole-4-carbonitrile hydrochloride] showed an inhibition at 0.2 µM under setting [1] of 98%. For the same compound, under setting [2], the IC50 came out at 27 nM.
In the same order, the values of `Cn1nc(C(C)(C)C)c(Cl)c1-c1nc2cc(-c3ccccc3C(F)(F)F)ncc2[nH]1` [Compound 46, 2-(5-tert-Butyl-4-chloro-2-methyl-2H-pyrazol-3-yl)-6-(2-trifluoromethyl-phenyl)-3H-imidazo[4,5-c]pyridine hydrochloride] are 99% and 19 nM.
Compound `Cn1nc(C(C)(C)C)c(C#N)c1-c1nc2cc(-c3ccccc3)ncc2[nH]1` [Compound 47, 3-tert-Butyl-1-methyl-5-(6-phenyl-3H-imidazo[4,5-c]pyridin-2-yl)-1H-pyrazole-4-carbonitrile hydrochloride] had an inhibition at 0.2 µM under setting [1] of 56%.
For the compound `Cl.Cn1nc(C(C)(C)C)c(Cl)c1-c1nc2cc(-c3ccccc3F)ncc2[nH]1` [Compound 48, 2-(5-tert-Butyl-4-chloro-2-methyl-2H-pyrazol-3-yl)-6-(2-fluoro-phenyl)-3H-imidazo[4,5-c]pyridine hydrochloride], the “% Inh @ 0.2 μM” value under setting [4] is given as 59%.
As to `Cn1nc(C(C)(C)C)c(Cl)c1-c1nc2cc(-c3ccccc3C(F)(F)F)nc(OCCN3CCOCC3)c2[nH]1` [Compound 49, 2-(5-tert-Butyl-4-chloro-2-methyl-2H-pyrazol-3-yl)-4-(2-morpholin-4-yl-ethoxy)-6-(2-trifluoromethyl-phenyl)-3H-imidazo[4,5-c]pyridine], under setting [1], the inhibition at 0.2 µM is 100%. For the same compound, it took 6.4 nM to reach half-maximal inhibition under setting [2] (IC50).
In the case of `CN1CCN(CCOc2nc(-c3ccccc3C(F)(F)F)cc3nc(-c4c(Cl)c(C(C)(C)C)nn4C)[nH]c23)CC1` [Compound 50, 2-(5-tert-Butyl-4-chloro-2-methyl-2H-pyrazol-3-yl)-4-[2-(4-methyl-piperazin-1-yl)-ethoxy]-6-(2-trifluoromethyl-phenyl)-3H-imidazo[4,5-c]pyridine], the inhibition at 0.2 µM under setting [1] was found to be 91%. Under setting [2], the 50% inhibitory concentration (IC50) was 56 nM.
In turn, `Cn1nc(C(C)(C)C)c(Cl)c1-c1nc2cc(-c3ccccc3Cl)nc(OCCN3CCCC3)c2[nH]1` [Compound 51, 2-(5-tert-Butyl-4-chloro-2-methyl-2H-pyrazol-3-yl)-6-(2-chloro-phenyl)-4-(2-pyrrolidin-1-yl-ethoxy)-3H-imidazo[4,5-c]pyridine] displayed an inhibition at 0.2 µM under setting [1] of 88%. Under setting [2], this compound returned an IC50 of 72 nM.
Under setting [3], `Cn1nc(C(C)(C)C)c(Cl)c1-c1nc2cc(-c3ccccc3C(F)(F)F)nc(OCCN3CCCC3)c2[nH]1` [Compound 52, 2-(5-tert-Butyl-4-chloro-2-methyl-2H-pyrazol-3-yl)-4-(2-pyrrolidin-1-yl-ethoxy)-6-(2-trifluoromethyl-phenyl)-3H-imidazo[4,5-c]pyridine] returned an inhibition at 0.2 µM of 80%. Also, the IC50 under setting [2] was found to be 79 nM.
